Experimental findings from PubChem BioAssay AID720603 (Broad Institute, 2013) are described below.

The subject of the experiment is C2C12 mouse myoblast viability, CellTiter-Glo ATP, 8-48 h. The experiment can be described thus: cytotoxicity in mouse C2C12 myoblasts – cell-based, CellTiter-Glo ATP luminescence, 8/24/48 h, dry powder, cytotoxicity control for HRAS target identification, dose response (AID 720603).

Usually AC50 stands for the midpoint of the concentration-response curve, whichever way the signal moves. Low readings indicate greater potency, high ones weaker potency.

Results filed as inconclusive are left out.

`COC(=O)c1ccc([C@@H]2c3[nH]c4ccccc4c3C[C@@H](C(=O)OC)N2C(=O)CCl)cc1`: the AC50 turned out to be 597 nM (measured here: 8 h treatment), 21.2 nM (measured here: 24 h treatment) and 80.6 nM (measured here: 48 h treatment).

For the molecule `CC(C)(C)OC(=O)NCCOCCOCCOc1ccc(N(C(=O)CCl)C(C(=O)NCCc2ccccc2)c2cccs2)cc1Cl` (stereo unspecified), the concentration at half-maximal activity (AC50) is 1380 nM (measured here: 8 h treatment), 161 nM (measured here: 24 h treatment) and 388 nM (measured here: 48 h treatment).

Take `C#CCCCC(=O)NCCOCCOCCOc1ccc(N(C(=O)CCl)C(C(=O)NCCc2ccccc2)c2cccs2)cc1Cl` (stereo unspecified): the concentration at half-maximal activity (AC50) is, setting by setting: (measured here: 24 h treatment) 1330 nM; (measured here: 48 h treatment) 2620 nM.

For `COc1ccc(N(C(=O)CCl)C(C(=O)NCCc2ccccc2)c2cccs2)cc1Cl` (stereo unspecified), the AC50 by setting is: (measured here: 8 h treatment) 17800 nM; (measured here: 24 h treatment) 108 nM; (measured here: 48 h treatment) 311 nM.
